This note sets out measurements from ChEMBL document CHEMBL1153850, “Novel derivatives of 6-mercaptopurine: synthesis, characterization and antiproliferative activities of S-allylthio-mercaptopurines” (Eur J Med Chem, 2009).

The subject of one experiment is PBMC. The experiment is described as follows: Inhibition of T cell mitogen-induced blastogenesis in human PBMC after 4 days. The format is functional, cell-based. As to conditions: 96 h.
A further experiment relates to MOLT-4. Briefly: Antiproliferative activity against human MOLT4 cells assessed as [methyl-3H]thymidine incorporation after 16 hrs by XTT assay. It is filed as functional, cell-based. The conditions noted are these: MOLT-4, 16 h. (Dividing cells build labelled thymidine or BrdU into new DNA.)
The test system of the next experiment is Jurkat. Briefly: Antiproliferative activity against human Jurkat cells assessed as [methyl-3H]thymidine incorporation after 16 hrs by XTT assay. The format is functional, cell-based.
Experiment [1] has as its system NCI-N87. Briefly: Antiproliferative activity against human NCI-N87 cells at 150 uM after 16 hrs by XTT assay. The format is functional. In general terms: Tetrazolium dyes change colour on reduction, which living cells bring about.
Experiment [2] concerns HeLa. Briefly: Antiproliferative activity against human HeLa cells assessed as cell viability after 16 hrs by [methyl-3H]thymidine incorporation based XTT assay relative to control. It is filed as functional.
For another experiment, the system named is U-937. Briefly: Antiproliferative activity against human U937 cells assessed as [methyl-3H]thymidine incorporation after 16 hrs by XTT assay. The format is functional, cell-based. As to conditions: U-937, 16 h.
Experiment [3] concerns HL-60. The experiment is described as follows: Antiproliferative activity against human HL60 cells assessed as cell viability after 16 hrs by [methyl-3H]thymidine incorporation based XTT assay relative to control. It is filed as functional.
A short description of experiment [4]: Induction of apoptosis in human B-CLL cells assessed as increase in apoptotic cells at 50 uM after 16 hrs by FACS analysis. It is filed as functional.
Experiment [5] relates to HeLa. Briefly: Cytotoxicity against human HeLa cells assessed as reduced cell viability at 150 uM by trypan blue exclusion assay relative to control. The format is functional.
For experiment [6], the system named is HT-29. Briefly: Cytotoxicity against multidrug-resistant human HT-29 cells assessed as inhibition of epithelial-like growth at 150 uM after 16 hrs using propidium iodide staining by phase-contrast microscopy. The format is functional, cell-based.
The subject of experiment [7] is Daudi. The experiment is described as follows: Antiproliferative activity against human Daudi cells at 50 uM after 16 hrs by XTT assay. It is filed as functional.
Experiment [8] in a line: Induction of apoptosis in human B-CLL cells assessed as increase in apoptotic cells at 100 uM after 16 hrs by FACS analysis. It is filed as functional.
The test system of experiment [9] is NCI-N87. The experiment is described as follows: Antiproliferative activity against human NCI-N87 cells assessed as [methyl-3H]thymidine incorporation after 16 hrs by XTT assay. The format is functional, cell-based. The conditions noted are these: for IC50: NCI-N87, 16 h.
For experiment [10], the system named is Daudi. The experiment is described as follows: Antiproliferative activity against human Daudi cells at <=20 uM assessed as [methyl-3H]thymidine incorporation after 16 hrs by XTT assay relative to control. It is filed as functional.
Experiment [11] deals with HT-29. The experiment is described as follows: Cytotoxicity against multidrug-resistant human HT-29 cells assessed as reduced cell viability at 150 uM by trypan blue exclusion assay relative to control. It is filed as functional.
Experiment [12] concerns NCI-N87. Briefly: Antiproliferative activity against human NCI-N87 cells assessed as residual proliferation at 50 uM after 16 hrs by XTT assay. It is filed as functional.
Experiment [13] relates to NCI-N87. The experiment is described as follows: Antiproliferative activity against human NCI-N87 at 100 uM assessed as [methyl-3H]thymidine incorporation after 16 hrs by XTT assay relative to control. It is filed as functional, cell-based.
For experiment [14], the system named is HeLa. The experiment is described as follows: Antiproliferative activity against human HeLa cells at 110 uM assessed as [methyl-3H]thymidine incorporation after 16 hrs by XTT assay relative to control. The format is functional, cell-based.
The test system of experiment [15] is HeLa. Briefly: Antiproliferative activity against human HeLa cells assessed as [methyl-3H]thymidine incorporation after 16 hrs by XTT assay. The format is functional, cell-based.
In experiment [16] the test system is Daudi. The experiment is described as follows: Antiproliferative activity against human Daudi cells assessed as [methyl-3H]thymidine incorporation after 16 hrs by XTT assay. The format is functional, cell-based.
A short description of experiment [17]: Cytotoxicity against human B-CLL cells assessed as residual cell viability at 150 uM after 16 hrs by trypan blue exclusion assay relative to control. It is filed as functional.
The test system of experiment [18] is HT-29. Briefly: Induction of multidrug-resistant human HT-29 cell death at 150 uM after 16 hrs using propidium iodide staining by fluorescence microscopy. It is filed as functional, cell-based.
Experiment [19] relates to Daudi. Briefly: Cytotoxicity against human Daudi cells assessed as residual cell viability at 50 uM after 16 hrs by trypan blue exclusion assay relative to control. It is filed as functional.
In experiment [20] the test system is HL-60. The experiment is described as follows: Antiproliferative activity against human HL60 cells assessed as [methyl-3H]thymidine incorporation after 16 hrs by XTT assay. It is filed as functional, cell-based. As to conditions: HL-60, 16 h.
The subject of experiment [21] is HT-29. The experiment is described as follows: Antiproliferative activity against multidrug-resistant human HT-29 cells assessed as [methyl-3H]thymidine incorporation after 16 hrs by XTT assay. The format is functional, cell-based. As to conditions: HT-29, 16 h.
Experiment [22] has as its system NCI-N87. The experiment is described as follows: Antiproliferative activity against human NCI-N87 cells assessed as residual proliferation at 100 uM after 16 hrs by XTT assay. It is filed as functional.
Experiment [23] deals with Daudi. Briefly: Antiproliferative activity against human Daudi cells assessed as residual proliferation at 100 uM after 16 hrs by XTT assay. It is filed as functional.
For experiment [24], the system named is Daudi. The experiment is described as follows: Antiproliferative activity against human Daudi cells assessed as residual proliferation at 50 uM after 16 hrs by XTT assay. It is filed as functional.
A short description of experiment [25]: Induction of apoptosis in human B-CLL cells after 48 hrs by FACS analysis. The format is functional, cell-based. (Flow cytometry measures light scatter and fluorescence of single cells or particles in a stream.)
The test system of experiment [26] is HeLa. The experiment is described as follows: Cytotoxicity against human HeLa cells assessed as reduced cell viability at 200 uM by trypan blue exclusion assay relative to control. The format is functional.
Experiment [27] can be described thus: Antiproliferative activity against human B-CLL cells assessed as cell viability after 16 hrs by trypan blue exclusion assay. The format is functional, cell-based.
Experiment [28] can be described thus: Induction of apoptosis in human B-CLL cells assessed as increase in apoptotic cells at 150 uM after 16 hrs by FACS analysis. It is filed as functional.

The term IC50 denotes the concentration needed to halve the response being measured.

The source made the active and inactive calls. No cut-off for these calls is given here.

`Cn1cnc([N+](=O)[O-])c1Sc1ncnc2[nH]cnc12` [AZATHIOPRINE] registered an IC50 in the experiment with PBMC of 0.23 µM.
As to `OC[C@@H]1O[C@H](n2cnc3c(S)ncnc32)[C@@H](O)[C@H]1O`, the IC50 in the experiment with MOLT-4 is 24.8 µM; in the experiment on Jurkat, 99 µM; in the experiment on U-937 it was above 200 µM. Also, in the experiment with NCI-N87 [1], the Activity is recorded as 75%. Further, the outcome in the experiment with HeLa [2] and in the experiment on HL-60 [3] was inactive.
Turning to `C=CCSSc1ncnc2nc[nH]c12`, the Activity was 37.88% in [4]; 65% in the experiment with HeLa [5]; 15% in the experiment with Daudi [7]; 95.26% in experiment [8]; “Dose-dependent effect” in the experiment with NCI-N87 [9]; 50% in the experiment with Daudi [10]. Further, the Activity in the experiment on HT-29 [11] is 40%; in the experiment on NCI-N87 [12], 50%; in the experiment on HeLa [15], “Dose-dependent effect”; in the experiment on Daudi [16], “Dose-dependent effect”; in [17], 75%; in the experiment on Daudi [19] it was 20%. The IC50 with MOLT-4 was 8.9 µM; in the experiment on Jurkat, 54.7 µM; in the experiment on NCI-N87 [9], 70.5 µM; in the experiment on U-937, 46.7 µM; in the experiment on Daudi [16], 38.3 µM; in the experiment with HL-60 [20], 42 µM. Besides, the outcome with HT-29 [6], with NCI-N87 [13], in the experiment with HeLa [14] and in the experiment on HT-29 [18] was Active.
On to `C=CCSSc1ncnc2c1ncn2[C@H]1O[C@@H](CO)[C@H](O)[C@@H]1O`, for which the IC50 was 16.9 µM in the experiment on MOLT-4; above 200 µM in the experiment with HT-29 [21]; 69.1 µM in the experiment with Jurkat; 120 µM with NCI-N87 [9]; 113 µM in the experiment with U-937; above 200 µM in the experiment on HeLa [15]. The results for the concentration for half-maximal inhibition (IC50) in the experiment with Daudi [16] and with HL-60 [20] were 70.8 µM and 86.1 µM, respectively. The result in the experiment with NCI-N87 [1] was Active. Besides, the Activity with NCI-N87 [12] is 70%; with NCI-N87 [22] it was 55%; in the experiment on Daudi [23] it was 25%; in the experiment on Daudi [24] it was 60%.
As for `C=CCS[S+]([O-])CC=C` (stereo not drawn) [ALLICIN], the concentration for half-maximal inhibition (IC50) in experiment [25] is 20 µM; with HT-29 [21], 83.8 µM; with NCI-N87 [9] it was 16.8 µM; in the experiment on U-937, 19.7 µM; in the experiment with Daudi [16] it was 35.3 µM; with HL-60 [20], 5.5 µM.
As for `Sc1ncnc2nc[nH]c12` [MERCAPTOPURINE ANHYDROUS], the Activity in experiment [4] was 9.78%; in the experiment with HeLa [26], 75%; in [8], 9.7%; in the experiment with NCI-N87 [1], 80%; with NCI-N87 [9], “Dose-dependent effect”; in the experiment with HeLa [15], “Dose-dependent effect”. For the same molecule, the Activity result in the experiment on Daudi [16] was “Dose-dependent effect”; in experiment [28], 8.68%. Besides, the IC50 in the experiment on MOLT-4 was 50.5 µM; in the experiment on HT-29 [21] it was above 200 µM; in the experiment on Jurkat, above 200 µM; in experiment [27] it was above 200 µM; in the experiment on U-937, above 200 µM; in the experiment on PBMC, 0.149 µM. The IC50 with HeLa [15] and with Daudi [16] was above 200 µM each time. Also, the outcome in the experiment with HT-29 [6], with Daudi [10], in the experiment with NCI-N87 [13] and with HeLa [14] was inactive.
